Target: T1, Tyrosine-protein phosphatase non-receptor type 11 (Homo sapiens, UniProt Q06124)
T1 sequence (Q06124 whole entry): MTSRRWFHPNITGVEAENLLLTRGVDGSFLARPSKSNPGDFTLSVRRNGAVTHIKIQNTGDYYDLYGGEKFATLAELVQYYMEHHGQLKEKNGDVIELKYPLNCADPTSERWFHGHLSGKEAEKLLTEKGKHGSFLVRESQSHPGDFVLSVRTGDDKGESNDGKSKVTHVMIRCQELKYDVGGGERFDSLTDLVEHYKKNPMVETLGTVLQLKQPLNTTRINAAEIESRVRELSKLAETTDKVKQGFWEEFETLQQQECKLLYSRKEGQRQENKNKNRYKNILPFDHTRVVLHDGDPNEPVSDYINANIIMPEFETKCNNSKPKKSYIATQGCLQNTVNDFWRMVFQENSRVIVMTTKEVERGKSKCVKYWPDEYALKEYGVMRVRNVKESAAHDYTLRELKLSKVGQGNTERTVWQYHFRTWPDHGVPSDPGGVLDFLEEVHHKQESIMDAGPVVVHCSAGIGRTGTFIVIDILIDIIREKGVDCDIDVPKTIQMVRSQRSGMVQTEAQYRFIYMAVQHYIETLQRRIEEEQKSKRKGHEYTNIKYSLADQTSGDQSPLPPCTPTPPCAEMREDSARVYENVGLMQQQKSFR
Test: SHP2 Allosteric Inhibition Assay
Experimental: The phosphatase reactions were performed at room temperature in 96-well black polystyrene plate, flat bottom, non-binding surface (Corning, Cat #3650) using a final reaction volume of 100 μL and the following assay buffer conditions: 50 mM HEPES, pH 7.2, 100 mM NaCl, 0.5 mM EDTA, 0.05% P-20, 1 mM DTT. The inhibition of SHP2 by compounds of the disclosure (concentrations varying from 0.00005-10 μM) was monitored using an assay in which 0.2 nM of SHP2 was incubated with 0.5 μM of Activating Peptide 1 (sequence: H2 N-LN(pY)IDLDLV(dPEG8)LST(pY)ASINFQK-amide) or Activating Peptide 2 (sequence: H2 N-LN(pY)AQLWHA(dPEG8)LTI(pY)ATIRRF-amide). After 30-60- minutes incubation at 25° C., the surrogate substrate DiFMUP (Invitrogen, Cat #D6567) was added to the reaction and activity was determined by a kinetic read using a microplate reader (Envision, Perkin-Elmer or Spectramax M5, Molecular Devices). The excitation and emission wavelengths were 340 nm and 450 nm, respectively. Initial rates were determined from a linear fit of the data, and the inhibitor dose response curves were analyzed using normalized IC50 regression curve fitting with control-based normalization.

IC50: 34 nM
Structure (SMILES): Cc1nc(N2CCC3(CC2)CO[C@@H](C)[C@H]3N)c2ccnn2c1Sc1ccnc(N)c1Cl [US11739093, Compound 3]
